# Reference: patent US20160030628A1, “TREATMENT FOR BILE LEAKAGE” (3-D MATRIX, LTD, priority 2013, published 2016)
# How the values were obtained:
# [1] = system: gallbladder bile leakage occlusion site; assay: histopathology assessment (H&E) of the bile leakage occlusion site; format: in vivo, porcine; details: gallbladder fixed in formalin after occlusion with 2.5% w/v RADA16
# Method: (§1) The objective of this study was to evaluate a self-assembling peptide solution (RADA16 in the form of PuraMatrix™ peptide hydrogel by 3-D Matrix, LTD.) as a bile leakage occlusion material in a porcine model. A histopathology assessment was also performed.
# After bile leakage occlusion was achieved, the gallbladder was fixed in formalin and the H&E-stained pathological specimen was made at the bile leakage occlusion site.
# [2] = system: bile leakage from punctured gall bladder; assay: bile leakage occlusion in a porcine gall bladder needle puncture model; format: in vivo; details: 2.5% w/v RADA16
# Method: as §1
# On the day of testing, an animal was sedated and prepared for surgery. A bile leakage model was prepared by puncturing needle punctures, using a 20G injection needle in the gall bladder of the test subject, as shown in FIG. 1A.
# Subsequent to applying the self-assembling peptide solution, a bile leakage occlusion was confirmed at 1 minute, 20 seconds, as shown in FIG. 1D.
# It was determined that 0.5 mL of the peptide solution was used to achieve the bile leakage occlusion of the needle puncture in the gallbladder.
substance,measurement,setting,value
"Arg-Ala-Asp-Ala-Arg-Ala-Asp-Ala-Arg-Ala-Asp-Ala-Arg-Ala-Asp-Ala (RADARADARADARADA) [RADA16, self-assembling peptide; 1 and 2.5 w/v percent aqueous solutions available as PuraMatrix peptide hydrogel by 3-D Matrix]","histopathological finding at bile leakage occlusion site (H&E-stained specimen, FIG. 2)",[1],occluded the bile leakage site
same,volume of peptide solution used to achieve the bile leakage occlusion of the needle puncture,"[2]; 20G needle puncture in the gallbladder, porcine model",0.5 mL
same,secondary bile leakage after excess hydrogel was irrigated from the site,"[2]; checked at 3 minutes, porcine gall bladder puncture",absence of a secondary bile leakage was confirmed
